We go through three compounds from publication PMC11009648, “Development of an orally bioavailable mSWI/SNF ATPase degrader and acquired mechanisms of resistance in prostate cancer” (Proceedings of the National Academy of Sciences of the …, 2024).

Assay [1] relates to VCaP castration-resistant tumor model. The assay can be described thus: CRPC-VCaP xenograft efficacy study. Type of assay: in vivo. To be noted: castrated CB17 SCID mice; enzalutamide 10 mg/kg oral gavage five times weekly; AU-24118 15 mg/kg oral gavage three times weekly. On the procedure: Six-week-old CB17 (male) SCID mice were obtained from the breeding colony at the U-M. For all studies, tumors were measured two or three times per week using digital calipers, and tumor volumes were calculated using the formula (π/6) (L × W2), where L is length and W is width of the tumor. At study endpoint, mice were killed, and tumors were extracted and weighed. […] Once tumors grew to a palpable size (~400 mm^3), the mice were physically castrated. Once those tumors regained their precastration size, mice were then randomized and treated with either 15 mg/kg AU-24118 or vehicle by oral gavage 3 d per week with or without enzalutamide (10 mg/kg) by oral gavage 5 d per week for 4 wk.
IHC was performed on 4 µm formalin-fixed, paraffin-embedded tissue sections using BRG1 (SMARCA4), AR, FOXA1, ERG and C-Myc. The IHC process was performed on the Ventana ULTRA automated slide staining system using the Omnimap and Ultraview Universal DAB detection kit. The antibody details are provided in SI Appendix, Table S1. The following commercial kits from Roche-Ventana Medical System were used: Discovery CC1 (Cat No. 950-500), Discovery CC2 (Cat No. 950-123), OptiView Universal DAB Detection Kit (Cat No. 760-700), and OmniMap Universal DAB Detection Kit (Cat No. 760-149).
The TUNEL and In Situ Cell Death Detection Kits (TMR Red #12156792910; Roche Applied Science) were used to examine apoptosis, following the manufacturer’s instructions. Briefly, fixed sections were permeabilized with Triton X-100 and then washed in phosphate-buffered saline. Labeling was carried out at 37 °C for 60 min by addition of a reaction buffer that contained enzymes. A Zeiss Axiolmager M1 microscope was used to obtain images.

For assay [2] the test system is unchanged. On the set-up: method as in PMID 34937944. The conditions noted are these: VCaP CRPC model, AU-15330 60 mg/kg; not an arm of this study; cited from earlier work.
The test system of assay [3] is SMARCA4, PBRM1 and SMARCA2 in 22Rv1-AUR-3 xenografts. Briefly: 22Rv1-AUR-3 xenograft pharmacodynamics study. The conditions noted are these: 5 d; AU-15330 60 mg/kg retro-orbital; zosuquidar 10, 20 or 40 mg/kg i.p.
Protocol: (§3) Lysates were prepared using radioimmunoprecipitation assay buffer (Thermo Fisher) with cOmpleteTM protease inhibitor cocktail tablets (Sigma-Aldrich) added. Total protein for each sample was determined using the DC Protein Assay (Bio-Rad) according to the manufacturer’s instructions. A standardized quantity of protein was resolved using NuPAGE Tris-Acetate Protein Gel (3 to 8%) (Thermo Fisher) or NuPAGE Bis-Tris Protein Gel (4 to 12%) (Thermo Fisher) and probed with primary antibodies as indicated. Following incubation with secondary antibodies conjugated with horseradish peroxidase, membranes were imaged on an Odyssey Fc Imager (LiCOR Biosciences).
For the 22Rv1-AUR-3 model, bilateral subcutaneous dorsal flank tumors were established by injecting 1 × 10^6 cells suspended in a 1:1 mixture of serum-free medium and Matrigel (BD Biosciences). Once tumors reached an average volume of 100 mm^3, mice were randomized and treated with either 60 mg/kg AU-15330 by retro-orbital vein injection 3 times every other day and with or without 10 mg/kg, 20 mg/kg, or 40 mg/kg of zosuquidar by intraperitoneal injection daily for 5 d per week. […] Animals harboring tumors approaching that size were immediately killed. All in vivo studies were approved by the U-M IACUC.
In assay [4] the test system is mutant forms of SMARCA4 in HEK293 cells. The assay can be described thus: Immunoblot of overexpressed flag-tagged mutant SMARCA4 in HEK293 cells. Type of assay: cell-based, human. To be noted: 24 h treatment. The text has this: GFP-SMARCA4 (Addgene, 65391) was used for the SMARCA4 mutation clone. The pLVX-TetOne-Puro-hAXL (Addgene, 124797) backbone was used as a starting point prior to undergoing a series of modifications. The endogenous target gene was removed, and a multiple cloning site (MCS) was inserted downstream of the endogenous promoter. Custom gblocks containing Flag-tagged WT SMARCA4 were synthesized (Integrated DNA Technologies, IDT) and inserted into the MCS. Subsequently, custom gblocks containing SMARCA4-N1540S, SMARCA4-I1551del, or SMARCA4-F1485S were inserted to replace the respective portion of WT SMARCA4. Finally, the TRE3G promoter was replaced with hPGK.
HEK293 cells were seeded overnight and transfected with Lipofectamine 3,000 (Thermo Fisher) according to the manufacturer’s protocol. Media were changed 8 h post transfection and incubated for 48 h prior to conducting further analyses.

The subject of assay [5] is SMARCA4, SMARCA2 and PBRM1 in 22Rv1 AUR-2 cells. The assay can be described thus: Immunoblot of target degradation in 22Rv1 AUR-2 cells. Type of assay: cell-based, human. To be noted: 4 h, AU-15330 1 µM, AU-24118 0.1 µM.
Protocol: as §3
For assay [6], the system named is 22Rv1 AUR-2 cells. Briefly: CellTiter-Glo cell viability assay in AU-15330-resistant 22Rv1 AUR-2 cells (SMARCA4 mutation). Type of assay: cell-based, human. The conditions noted are these: dose-response (Fig. S4C). The text has this: (§1) The rising importance of the mSWI/SNF complex as a therapeutic target and the success ([32], [33]) of developing next-generation PROTAC degraders targeting the mSWI/SNF complex prompted us to proactively study potential resistance mechanisms that cancer cells may develop in response to this class of compounds. To achieve this, we cultured 22Rv1 cells in either DMSO or a lethal dose of AU-15330 for 1 mo, refreshing the drug twice a week, until resistant cells emerged. Upon obtaining a population of resistant cells, we unbiasedly characterized the genomic and transcriptomic alterations using whole-exome sequencing and bulk RNA sequencing (RNA-seq), respectively (Fig. 3A).
Cells were seeded onto 96-well plates in appropriate culture media and allowed to adhere overnight prior to treatment. The next day, a nine-point serial dilution of the compounds was prepared and added to the plates. After treatment, the cells were then incubated for an additional 5 d. […] The signal (luminescence) from each well was determined using an Infinite M1000 Pro plate reader (Tecan). Relative viability was determined by dividing the signal from each well by the average of the control condition in each experiment. Finally, the data were analyzed and plotted using GraphPad Prism.
(In general: In ATP-based viability assays light output follows the ATP content of the culture.)

For assay [7], the system named is 22Rv1-wild type (WT) cells. The assay can be described thus: CellTiter-Glo cell viability assay in 22Rv1 wild type cells. Type of assay: cell-based, human. The conditions noted are these: 22Rv1 WT. The procedure:
(§2) Cells were seeded onto 96-well plates in appropriate culture media and allowed to adhere overnight prior to treatment. The next day, a nine-point serial dilution of the compounds was prepared and added to the plates. After treatment, the cells were then incubated for an additional 5 d. On the last day of treatment, the CellTiter-Glo cell viability assay (Promega) was then executed in accordance with the manufacturer’s guidelines. The signal (luminescence) from each well was determined using an Infinite M1000 Pro plate reader (Tecan). Relative viability was determined by dividing the signal from each well by the average of the control condition in each experiment. Finally, the data were analyzed and plotted using GraphPad Prism.

Assay [8] relates to 22Rv1 AUR-3 cells. The assay can be described thus: CellTiter-Glo cell viability assay in AU-15330-resistant 22Rv1 AUR-3 cells (ABCB1 overexpression). Type of assay: cell-based, human. The conditions noted are these: for IC50: 22Rv1 AUR-3.
From the text: as §1, §2

Setting [9] is: Homo sapiens, 22Rv1, 120 h, Fig. 4G/H, 5 d, without zosuquidar.
[10] abbreviates: Homo sapiens, 22Rv1, Fig. S6A, siABCB1.
Setting [11] is: Homo sapiens, 22Rv1, Fig. S6A, siNT (negative control).
Where [12] appears, read: Fig. 4G/H, 5 d, without zosuquidar.

Regarding `CNC(=O)c1ccc(N2C(=S)N(c3ccc(C#N)c(C(F)(F)F)c3)C(=O)C2(C)C)cc1F` [Enzalutamide, enzalutamide, reference compound], the tumor response entry in assay [1] is recorded as “moderate tumor growth inhibition”.

The IC50 is the concentration at which inhibition is half-maximal. As to `Cc1ncsc1-c1ccc([C@H](C)NC(=O)[C@@H]2C[C@@H](O)CN2C(=O)[C@@H](NC(=O)CN2CCN(c3cc(-c4ccccc4O)nnc3N)CC2)C(C)(C)C)cc1` [AU-15330], in assay [2], the “tumor response as a single agent” value is given as “more modest effects as a single agent”. For the same compound, the “degradation of target proteins in tumors, immunoblot” value in assay [3] is on record as “unable to degrade any of its target proteins alone”. For the same compound, the “degradation of overexpressed mutant SMARCA4, immunoblot” value in assay [4] is recorded as “resistant to degradation”. Moreover, the “degradation of SMARCA2 and PBRM1, immunoblot” value in assay [5] was “able to degrade SMARCA2 and PBRM1”. Further, in assay [5], the “degradation of SMARCA4, immunoblot” value is “unable to degrade SMARCA4”. In addition, the “ability to cause a decrease in cell viability” value in assay [6] is given as “unable”. Besides, the IC50 stood at 2.3 nM in assay [7] (setting [9]); 40.7 nM in assay [7] (Homo sapiens, 22Rv1, Fig. S5F); 48.9 nM in assay [7] (setting [10]); 45.5 nM in assay [7] (setting [11]); 28.5 µM in assay [8] (setting [9]); 20.5 µM in assay [8] (Homo sapiens, 22Rv1, Fig. S5F). Moreover, the IC50 in assay [8] (setting [10]) was 0.99 µM; in assay [8] (setting [11]), over 30 µM.

As to `Cc1cc([C@H](C(=O)N2C[C@H](O)C[C@H]2C(=O)N[C@@H](CC(=O)N2CCC(N3CCC(C#Cc4ccc(C(=O)NC5C(C)(C)C(Oc6ccc(C#N)c(Cl)c6)C5(C)C)cc4)CC3)CC2)c2ccc(-c3scnc3C)cc2)C(C)C)on1` (stereo partly drawn) [ARD-61, reference compound], the figures for the IC50 in assay [7] (setting [12]) and in assay [8] (setting [12]) were 800 nM and over 30 µM, respectively. The “sensitivity of AUR-3 cells versus WT” value in assay [8] (22Rv1 AUR-3 cells (Fig. S5 E and F)) is listed as “dramatically less sensitive”.
